≈ marks a conversion by molar mass, not a printed value. Read-outs that look alike come from different tables or passages of the source.
Experiments:
Candida albicans (Ca) = test: MIC for Candida albicans, malt yeast agar; type: cell-based, Candida albicans ATCC 10231; conditions: malt yeast agar; 30° C., 48 hours for yeast; read-out: Minimum Inhibitory Concentration (MIC), Ca
Description: (§1) The minimum inhibitory concentration (MIC) for the compounds listed in Table I is determined for 9 bacteria, using nutrient agar; and 7 yeast and fungi, using malt yeast agar. A one percent solution of the test compound is prepared in a mixture of acetone and water.
(§2) Malt yeast agar is prepared by adding 3 g yeast extract and 45 g malt agar per liter of deionized water. The specific agar is dispensed in 30 mL aliquots into 25×200 mm test tubes, capped and autoclaved for 15 minutes at 115° C.
(§3) The test tubes containing the malt yeast agar and the nutrient agar are cooled in a water bath until the temperature of the agar is 48° C. Then, an appropriate amount of the one percent solution of the test compound is added (except in the controls where no compound is added) to the respective test tubes so that the final concentrations are zero (0), 1.0, 2.5, 5, 10, 25, 50, 100, 250 and 500 parts per million of the test compound in each of the respective type of agar. The contents of each of the test tubes are then transferred to separate petri plates. After drying for 24 hours, the petri plates containing nutrient agar are inoculated with bacteria and those containing malt yeast agar are inoculated with yeast and fungi.
(§4) The inoculation with the yeast and fungi is accomplished as follows. Cultures of yeast and fungi are incubated for seven days on malt yeast agar at 30° C. These cultures are used to prepare suspensions by the following procedure. A suspension of each organism is prepared by adding 10 mL of sterile saline and 10 microliters of octylphenoxy polyethoxy ethanol to the agar slant of yeast or fungi. The sterile saline/octylphenoxy polyethoxy ethanol solution is then agitated with a sterile swab to suspend the microorganism grown on the slant. Each resulting suspension is diluted into sterile saline (1 part suspension: 9 parts sterile saline). Aliquots of these dilutions are placed in individual wells of Steer's Replicator and petri plates inoculated as previously described. The petri plates are incubated at 30° C. and read after 48 hours for yeast and 72 hours for fungi.
(§5) Table II list the bacteria, yeast and fungi used in the MIC test described above along with their respective American Type Culture Collection (ATCC) identification numbers.

[1] = system: Klebsiella pneumonias (Kp); test: MIC for Klebsiella pneumonias, nutrient agar; type: cell-based, Klebsiella pneumonias ATCC 8308; conditions: 30° C., 48 hours, read-out: Minimum Inhibitory Concentration (MIC), Kp
Description: as §1
(§6) Nutrient agar is prepared at pH 6.8, representing a neutral medium, and at pH 8.2, representing an alkaline medium. The nutrient agars are prepared by adding 23 g of nutrient agar to one-liter of deionized water. In addition, the alkaline medium is prepared by adjusting a 0.04M solution of N-[tris-(hydroxymethyl)methyl]-glycine buffered deionized water with concentrated sodium hydroxide to a pH of 8.5.
as §3
(§7) The inoculation with bacteria is accomplished by using the following procedure. Twenty-four hour-cultures of each of the bacteria are prepared by incubating the respective bacteria in tubes containing nutrient broth for 24 hours at 30° C. in a shaker. Dilutions of each of the 24 hour-cultures are made so that nine separate suspensions (one for each of the nine test bacteria) are made, each containing 10^8 colony forming units (CFU) per mL of suspension of a particular bacteria. Aliquots of 0.3 mL of each of the bacterial suspensions are used to fill the individual wells of Steer's Replicator. For each microbial suspension, 0.3 mL was used to fill three wells (i.e., three wells of 0.3 mL each) so that for the nine different bacteria, 27 wells are filled. The Steer's Replicator is then used to inoculate both the neutral and alkaline pH nutrient agar petri plates.
(§8) The inoculated petri plates are incubated at 30° C. for 48 hours and then read to determine if the test compound which is incorporated into the agar prevented growth of the respective bacteria.
as §5

[2] = system: Enterobacter aerogenes (Ea); test: MIC for Enterobacter aerogenes, nutrient agar; type: cell-based, Enterobacter aerogenes ATCC 13048; conditions: Klebsiella aerogenes, nutrient agar, 30° C., 48 hours, read-out: Minimum Inhibitory Concentration (MIC), Ea
Description: as §1, §6, §3, §7, §8, §5

Salmonella choleraesuis = test: MIC for Salmonella choleraesuis, nutrient agar; type: cell-based, Salmonella choleraesuis ATCC 10708; conditions: Salmonella enterica, 30° C., 48 hours, read-out: Minimum Inhibitory Concentration (MIC), SC
Description: as §1, §6, §3, §7, §8, §5

Saccharomyces cerevisiae = test: MIC for Saccharomyces cerevisiae, malt yeast agar; type: cell-based, Saccharomyces cerevisiae ATCC 4105; conditions: malt yeast agar, 30° C., 48 hours for yeast, read-out: Minimum Inhibitory Concentration (MIC), Sc
Description: as §1, §2, §3, §4, §5

[3] = system: Aureobasidium pullulan (Ap); test: MIC for Aureobasidium pullulan, malt yeast agar; type: cell-based, Aureobasidium pullulan ATCC 16622; conditions: malt yeast agar; 30° C.; 48 hours for yeast and 72 hours for fungi; read-out: Minimum Inhibitory Concentration (MIC), Ap
Description: as §1, §2, §3, §4, §5

Trichoderma viride (Tv) = test: MIC for Trichoderma viride, malt yeast agar; type: cell-based, Trichoderma viride ATCC 8678; conditions: malt yeast agar; 30° C., 72 hours for fungi; read-out: Minimum Inhibitory Concentration (MIC), Tv
Description: as §1, §2, §3, §4, §5

Escherichia coli (Ec) = test: MIC for Escherichia coli, nutrient agar; type: cell-based, Escherichia coli ATCC 11229; conditions: 30° C., 48 hours, read-out: Minimum Inhibitory Concentration (MIC), Ec
Description: as §1, §6, §3, §7, §8, §5

Bacillus subtilis (Bs) = test: MIC for Bacillus subtilis, nutrient agar; type: cell-based, Bacillus subtilis ATCC 8473; conditions: 30° C., 48 hours, read-out: Minimum Inhibitory Concentration (MIC), Bs
Description: as §1, §6, §3, §7, §8, §5

[4] = system: Pseudomonas aeruginosa (PRD-10); test: MIC for Pseudomonas aeruginosa PRD-10, nutrient agar; type: cell-based, Pseudomonas aeruginosa ATCC 15442; conditions: 30° C., 48 hours, read-out: Minimum Inhibitory Concentration (MIC), PRD
Description: as §1, §6, §3, §7, §8, §5

Proteus vulgaris (Pv) = test: MIC for Proteus vulgaris, nutrient agar; type: cell-based, Proteus vulgaris ATCC 881; conditions: 30° C., 48 hours, read-out: Minimum Inhibitory Concentration (MIC), Pv
Description: as §1, §6, §3, §7, §8, §5

[5] = system: Pseudomonas aeruginosa (Pa); test: MIC for Pseudomonas aeruginosa, nutrient agar; type: cell-based, Pseudomonas aeruginosa ATCC 10145; conditions: 48 hours, read-out: Minimum Inhibitory Concentration (MIC), Pa
Description: as §1, §6, §3, §7, §8, §5

Aspergillus niger (An) = test: MIC for Aspergillus niger, malt yeast agar; type: cell-based, Aspergillus niger ATCC 16404; conditions: malt yeast agar; 30° C., 72 hours for fungi; read-out: Minimum Inhibitory Concentration (MIC), An
Description: as §1, §2, §3, §4, §5

[6] = system: Staphylococcus aureus (Sa); test: MIC for Staphylococcus aureus, nutrient agar; type: cell-based, Staphylococcus aureus ATCC 6538; conditions: 30° C., 48 hours, read-out: Minimum Inhibitory Concentration (MIC), Sa
Description: as §1, §6, §3, §7, §8, §5

Fusarium oxysporum (Fo) = test: MIC for Fusarium oxysporum, malt yeast agar; type: cell-based, Fusarium oxysporum ATCC 48112; conditions: malt yeast agar; 30° C., 72 hours for fungi; read-out: Minimum Inhibitory Concentration (MIC), Fo
Description: as §1, §2, §3, §4, §5

[7] = system: Penicillium chrysogenum (Pc); test: MIC for Penicillium chrysogenum, malt yeast agar; type: cell-based, Penicillium chrysogenum ATCC 9480; conditions: malt yeast agar; 30° C., 72 hours for fungi; read-out: Minimum Inhibitory Concentration (MIC), PC
Description: as §1, §2, §3, §4, §5

N#CC1=C(C#N)Sc2c(cnn(-c3ccccc3)c2=O)S1 [A, 5,6-Dihydro-5-oxo-6-phenyl-1,4-dithiino(2,3-d)pyridazine-2,3-dicarbonitrile] gave an MIC (Candida albicans (Ca)) of 25 µg/mL (≈ 80.6 µM), an MIC ([1]; pH 6.8, nutrient agar) of 50 µg/mL (≈ 161 µM) and an MIC ([1]; pH 8.2, nutrient agar) greater than 500 µg/mL. For the same compound, the MIC ([2]; pH 6.8) was 250 µg/mL (≈ 806 µM), the MIC ([2]; pH 8.2) was greater than 500 µg/mL and the MIC (Salmonella choleraesuis; pH 6.8, nutrient agar) was 100 µg/mL (≈ 322 µM). For the same compound, the MIC (Salmonella choleraesuis; pH 8.2, nutrient agar) was greater than 500 µg/mL, the MIC (Saccharomyces cerevisiae) was less than 10 µg/mL and the MIC [3] was 25 µg/mL (≈ 80.6 µM). For the same compound, the MIC (Trichoderma viride (Tv)) was 25 µg/mL (≈ 80.6 µM), the MIC (Escherichia coli (Ec); pH 6.8, nutrient agar) was 50 µg/mL (≈ 161 µM) and the MIC (Escherichia coli (Ec); pH 8.2, nutrient agar) was greater than 500 µg/mL. For the same compound, the MIC (Bacillus subtilis (Bs); pH 6.8, nutrient agar) was 50 µg/mL (≈ 161 µM), the MIC (Bacillus subtilis (Bs); pH 8.2, nutrient agar) was 500 µg/mL (≈ 1610 µM) and the MIC ([4]; pH 6.8, nutrient agar) was 500 µg/mL (≈ 1610 µM). It also gave an MIC ([4]; pH 8.2, nutrient agar) greater than 500 µg/mL, an MIC (Proteus vulgaris (Pv); pH 6.8, nutrient agar) of 50 µg/mL (≈ 161 µM) and an MIC (Proteus vulgaris (Pv); pH 8.2, nutrient agar) greater than 500 µg/mL. The MIC ([5]; pH 6.8, 30° C.) was 250 µg/mL (≈ 806 µM), the MIC ([5]; pH 8.2, 30° C.) was greater than 500 µg/mL and the MIC (Aspergillus niger (An)) was 25 µg/mL (≈ 80.6 µM). The MIC ([6]; pH 6.8, nutrient agar) was 25 µg/mL (≈ 80.6 µM), the MIC ([6]; pH 8.2, nutrient agar) was less than 10 µg/mL and the MIC (Fusarium oxysporum (Fo)) was 25 µg/mL (≈ 80.6 µM). The MIC [7] was 25 µg/mL (≈ 80.6 µM).
N#CC1=C(C#N)Sc2c(cnn(-c3ccc(Cl)cc3)c2=O)S1 [D, 5,6-dihydro-6-(4-chlorophenyl)-5-oxo-1,4-dithiino-(2,3-d)-pyridazine-2,3-dicarbonitrile] gave an MIC (Candida albicans (Ca)) of 10 µg/mL (≈ 29 µM), an MIC ([1]; pH 6.8, nutrient agar) greater than 500 µg/mL and an MIC ([1]; pH 8.2, nutrient agar) greater than 500 µg/mL. It also gave an MIC ([2]; pH 6.8) greater than 500 µg/mL, an MIC ([2]; pH 8.2) greater than 500 µg/mL and an MIC (Salmonella choleraesuis; pH 6.8, nutrient agar) of 100 µg/mL (≈ 290 µM). The MIC (Salmonella choleraesuis; pH 8.2, nutrient agar) was greater than 500 µg/mL, the MIC (Saccharomyces cerevisiae) was 10 µg/mL (≈ 29 µM) and the MIC [3] was 10 µg/mL (≈ 29 µM). It also gave an MIC (Trichoderma viride (Tv)) of 25 µg/mL (≈ 72.5 µM), an MIC (Escherichia coli (Ec); pH 6.8, nutrient agar) of 100 µg/mL (≈ 290 µM) and an MIC (Escherichia coli (Ec); pH 8.2, nutrient agar) greater than 500 µg/mL. The MIC (Bacillus subtilis (Bs); pH 6.8, nutrient agar) was 25 µg/mL (≈ 72.5 µM), the MIC (Bacillus subtilis (Bs); pH 8.2, nutrient agar) was 250 µg/mL (≈ 725 µM) and the MIC ([4]; pH 6.8, nutrient agar) was 500 µg/mL (≈ 1450 µM). For the same compound, the MIC ([4]; pH 8.2, nutrient agar) was greater than 500 µg/mL, the MIC (Proteus vulgaris (Pv); pH 6.8, nutrient agar) was 100 µg/mL (≈ 290 µM) and the MIC (Proteus vulgaris (Pv); pH 8.2, nutrient agar) was greater than 500 µg/mL. It also gave an MIC ([5]; pH 6.8, 30° C.) greater than 500 µg/mL, an MIC ([5]; pH 8.2, 30° C.) greater than 500 µg/mL and an MIC (Aspergillus niger (An)) of 10 µg/mL (≈ 29 µM). The MIC ([6]; pH 6.8, nutrient agar) was greater than 500 µg/mL, the MIC ([6]; pH 8.2, nutrient agar) was greater than 500 µg/mL and the MIC (Fusarium oxysporum (Fo)) was 10 µg/mL (≈ 29 µM). It also gave an MIC [7] of 25 µg/mL (≈ 72.5 µM).

From patent US5488051A, “Substituted 5,6-dihydro-5-oxo-1,4-dithiino-(2,3-d)-pyridazine-2,3-dicarbonitriles, compositions containing them and their use as antimicrobials” (The Dow Chemical Company, priority 1994, dated 1996)
